Laboratory results published in patent publication US9340590B2 (priority 2011, dated 2016).
Read-outs that look alike come from different tables or passages of the source. Positions of bridges follow the written chain, without caps; N, C: chain ends. Residues, ends and D or L forms follow the SMILES beside them.

Legend:
Experiment in all cases: cell-based
hNav1.5 = hNav1.5 (Homo sapiens, UniProt Q14524)
hNav1.3 = hNav1.3 (Homo sapiens, UniProt Q9NY46); conditions: IonWorks Quattro, read-out: IWQ Use Nav1.3
Chain of hNav1.3 (Q9NY46 whole entry, looked up): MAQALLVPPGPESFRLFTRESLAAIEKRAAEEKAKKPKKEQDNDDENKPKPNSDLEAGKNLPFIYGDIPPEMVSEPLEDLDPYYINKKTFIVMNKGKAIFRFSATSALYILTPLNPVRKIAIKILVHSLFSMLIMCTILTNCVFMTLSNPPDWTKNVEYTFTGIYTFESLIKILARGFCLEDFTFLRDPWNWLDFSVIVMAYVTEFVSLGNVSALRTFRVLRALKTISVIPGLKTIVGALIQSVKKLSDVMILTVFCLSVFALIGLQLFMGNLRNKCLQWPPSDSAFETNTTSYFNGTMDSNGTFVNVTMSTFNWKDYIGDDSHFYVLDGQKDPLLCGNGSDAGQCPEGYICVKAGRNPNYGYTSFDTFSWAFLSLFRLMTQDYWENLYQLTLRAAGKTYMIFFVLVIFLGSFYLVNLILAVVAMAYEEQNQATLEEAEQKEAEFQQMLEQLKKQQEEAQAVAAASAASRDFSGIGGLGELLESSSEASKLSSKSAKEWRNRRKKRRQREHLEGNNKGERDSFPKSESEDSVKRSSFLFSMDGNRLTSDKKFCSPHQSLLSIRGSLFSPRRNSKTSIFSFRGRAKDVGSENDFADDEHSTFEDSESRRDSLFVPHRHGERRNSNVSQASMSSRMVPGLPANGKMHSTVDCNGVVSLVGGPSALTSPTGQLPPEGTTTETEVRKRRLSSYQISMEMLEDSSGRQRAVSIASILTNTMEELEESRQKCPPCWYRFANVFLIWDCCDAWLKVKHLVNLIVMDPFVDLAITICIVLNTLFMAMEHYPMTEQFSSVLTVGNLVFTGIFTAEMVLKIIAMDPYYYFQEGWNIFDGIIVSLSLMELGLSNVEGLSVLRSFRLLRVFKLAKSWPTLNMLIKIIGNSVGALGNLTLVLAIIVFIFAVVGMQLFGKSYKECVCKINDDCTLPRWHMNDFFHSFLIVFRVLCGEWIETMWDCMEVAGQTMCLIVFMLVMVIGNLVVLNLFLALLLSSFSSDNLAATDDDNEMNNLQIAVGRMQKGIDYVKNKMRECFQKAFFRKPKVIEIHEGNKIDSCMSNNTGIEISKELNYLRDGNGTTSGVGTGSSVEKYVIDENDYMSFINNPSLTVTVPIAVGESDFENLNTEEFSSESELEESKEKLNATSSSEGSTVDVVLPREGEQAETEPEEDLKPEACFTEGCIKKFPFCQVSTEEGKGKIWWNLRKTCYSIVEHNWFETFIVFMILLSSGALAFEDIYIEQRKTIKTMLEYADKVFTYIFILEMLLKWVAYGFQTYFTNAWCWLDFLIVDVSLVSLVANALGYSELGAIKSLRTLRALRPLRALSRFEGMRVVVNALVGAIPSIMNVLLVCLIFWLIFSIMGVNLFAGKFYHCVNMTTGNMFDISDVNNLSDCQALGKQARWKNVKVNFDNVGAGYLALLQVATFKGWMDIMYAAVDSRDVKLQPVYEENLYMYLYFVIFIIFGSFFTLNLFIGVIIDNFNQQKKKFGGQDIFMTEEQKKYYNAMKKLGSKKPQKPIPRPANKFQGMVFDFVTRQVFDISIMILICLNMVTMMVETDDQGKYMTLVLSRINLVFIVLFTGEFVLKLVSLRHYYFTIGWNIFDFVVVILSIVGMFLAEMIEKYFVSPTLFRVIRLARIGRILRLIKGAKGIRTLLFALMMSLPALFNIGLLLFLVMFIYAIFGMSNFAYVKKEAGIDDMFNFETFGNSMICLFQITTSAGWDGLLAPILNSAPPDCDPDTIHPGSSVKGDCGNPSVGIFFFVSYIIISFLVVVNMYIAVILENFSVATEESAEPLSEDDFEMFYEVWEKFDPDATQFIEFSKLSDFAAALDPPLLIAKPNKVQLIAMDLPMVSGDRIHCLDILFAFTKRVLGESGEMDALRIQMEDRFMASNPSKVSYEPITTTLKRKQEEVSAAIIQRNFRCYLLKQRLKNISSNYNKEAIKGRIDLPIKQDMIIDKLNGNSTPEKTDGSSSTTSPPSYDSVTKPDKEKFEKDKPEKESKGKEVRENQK

hNav1.7 = hNav1.7 (Homo sapiens, UniProt Q15858); assay type: cell-based
[1] = IonWorks Quattro, clamped to −110 mV, depolarized to −10 mV, 5 min after compound, n=2, read-out: IWQ Use Nav1.5
[2] = clamped to −110 mV, depolarized to −10 mV, 5 min after compound, n=2
[3] = IonWorks Quattro, clamped to −110 mV, depolarized to −10 mV, 5 min after compound, n=2, read-out: IWQ Use Nav1.7

Chain of hNav1.5 (Q14524 whole entry, looked up): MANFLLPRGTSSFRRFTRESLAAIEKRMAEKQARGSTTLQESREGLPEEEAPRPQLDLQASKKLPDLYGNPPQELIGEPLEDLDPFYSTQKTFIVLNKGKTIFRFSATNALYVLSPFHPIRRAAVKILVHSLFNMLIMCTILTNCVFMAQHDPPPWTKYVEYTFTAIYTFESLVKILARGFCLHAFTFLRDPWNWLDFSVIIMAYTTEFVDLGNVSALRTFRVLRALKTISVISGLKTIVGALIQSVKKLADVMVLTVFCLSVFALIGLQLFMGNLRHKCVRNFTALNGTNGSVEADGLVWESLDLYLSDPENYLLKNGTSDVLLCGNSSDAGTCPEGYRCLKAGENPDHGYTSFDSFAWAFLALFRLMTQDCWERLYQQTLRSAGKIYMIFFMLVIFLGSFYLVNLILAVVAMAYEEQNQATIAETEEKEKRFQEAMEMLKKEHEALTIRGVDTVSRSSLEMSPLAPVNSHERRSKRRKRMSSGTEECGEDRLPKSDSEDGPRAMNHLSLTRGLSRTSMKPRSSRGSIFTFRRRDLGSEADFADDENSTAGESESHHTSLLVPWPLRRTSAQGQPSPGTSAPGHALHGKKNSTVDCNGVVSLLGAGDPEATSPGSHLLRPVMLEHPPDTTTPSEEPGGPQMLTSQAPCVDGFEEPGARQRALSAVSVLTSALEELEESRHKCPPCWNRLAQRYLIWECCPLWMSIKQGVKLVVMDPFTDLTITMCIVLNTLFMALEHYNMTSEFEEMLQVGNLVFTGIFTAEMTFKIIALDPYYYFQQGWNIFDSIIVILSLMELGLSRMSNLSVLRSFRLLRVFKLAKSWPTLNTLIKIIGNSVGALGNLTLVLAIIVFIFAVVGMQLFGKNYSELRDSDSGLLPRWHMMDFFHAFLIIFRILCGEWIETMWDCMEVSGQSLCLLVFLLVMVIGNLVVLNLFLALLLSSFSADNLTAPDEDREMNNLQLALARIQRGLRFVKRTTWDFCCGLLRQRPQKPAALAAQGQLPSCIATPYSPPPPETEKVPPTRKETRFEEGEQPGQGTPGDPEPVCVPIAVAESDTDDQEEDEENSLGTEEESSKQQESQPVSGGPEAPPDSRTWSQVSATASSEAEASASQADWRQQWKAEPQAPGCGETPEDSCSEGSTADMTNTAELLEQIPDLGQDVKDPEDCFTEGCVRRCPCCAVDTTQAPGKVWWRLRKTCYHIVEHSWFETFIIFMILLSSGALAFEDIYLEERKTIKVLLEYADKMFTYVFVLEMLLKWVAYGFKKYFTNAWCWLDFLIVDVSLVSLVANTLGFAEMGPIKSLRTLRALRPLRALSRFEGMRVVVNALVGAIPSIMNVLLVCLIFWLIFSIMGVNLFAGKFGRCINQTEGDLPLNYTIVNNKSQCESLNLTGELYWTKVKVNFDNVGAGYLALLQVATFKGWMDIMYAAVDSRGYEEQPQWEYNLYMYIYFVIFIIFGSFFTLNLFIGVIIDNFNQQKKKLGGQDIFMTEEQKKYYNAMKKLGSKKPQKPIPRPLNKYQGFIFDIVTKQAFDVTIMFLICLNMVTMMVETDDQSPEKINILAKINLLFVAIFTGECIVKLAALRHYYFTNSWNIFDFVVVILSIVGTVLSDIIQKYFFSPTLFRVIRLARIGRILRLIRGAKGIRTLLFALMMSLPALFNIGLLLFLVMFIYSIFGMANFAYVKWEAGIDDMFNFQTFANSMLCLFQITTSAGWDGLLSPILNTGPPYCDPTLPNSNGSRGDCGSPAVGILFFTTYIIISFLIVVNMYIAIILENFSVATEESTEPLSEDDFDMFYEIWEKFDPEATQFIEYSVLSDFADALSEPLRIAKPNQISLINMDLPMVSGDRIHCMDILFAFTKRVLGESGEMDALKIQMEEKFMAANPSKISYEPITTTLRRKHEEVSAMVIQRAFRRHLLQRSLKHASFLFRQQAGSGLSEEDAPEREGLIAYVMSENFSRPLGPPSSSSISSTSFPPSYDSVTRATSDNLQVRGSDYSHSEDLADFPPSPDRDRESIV

| Structure (SMILES) | IC50 (hNav1.5; [1]) | IC50 (hNav1.3; [2]) | IC50 (hNav1.7; [3]) | also measured |
| --- | --- | --- | --- | --- |
| CC[C@H](C)[C@@H]1NC(=O)[C@@H]2CSSC[C@@H]3NC(=O)[C@H](C(C)C)NC(=O)[C@H](CC(C)C)NC(=O)[C@H](CC(N)=O)NC(=O)[C@@H]4CCCN4C(=O)[C@H](CCCNC(=N)N)NC(=O)[C@H](CSSC[C@H](NC(=O)[C@@H](N)CC(=O)O)C(=O)N[C@@H](CC(C)C)C(=O)NCC(=O)N[C@@H](Cc4c[nH]c5ccccc45)C(=O)N[C@@H](CCSC)C(=O)N[C@@H](CCCNC(=N)N)C(=O)N[C@@H](CCCCN)C(=O)N2)NC(=O)[C@H](CSSC[C@@H](C(=O)N[C@@H](CCCCN)C(=O)N[C@@H](Cc2ccc(O)cc2)C(=O)N[C@H](C(=O)N[C@@H](Cc2ccccc2)C(N)=O)C(C)C)NC(=O)[C@H](Cc2c[nH]c4ccccc24)NC(=O)[C@H](CCCCN)NC(=O)[C@H](Cc2cnc[nH]2)NC(=O)[C@H]([C@@H](C)O)NC(=O)[C@H](CCCNC(=N)N)NC(=O)[C@H](CO)NC3=O)NC(=O)[C@H](CCCCN)NC(=O)[C@H](CC(=O)O)NC(=O)[C@H](CC(N)=O)NC(=O)[C@H](CC(=O)O)NC(=O)[C@@H]2CCCN2C1=O [SEQ ID NO: 82] (H-DCLGWMRKCIPDNDKCCRPNLVCSRTHKWCKYVF-NH2; disulfide 2-17, 9-23, 16-30) | 9.32 µM | 0.11 µM | 0.15 µM |  |
| CC[C@H](C)[C@@H]1NC(=O)[C@@H]2CSSC[C@@H]3NC(=O)[C@H](C(C)C)NC(=O)[C@H](CC(C)C)NC(=O)[C@H](CC(N)=O)NC(=O)[C@H](CO)NC(=O)[C@H](CO)NC(=O)[C@H](CCCNC(=N)N)NC(=O)[C@H](CSSC[C@H](NC(=O)[C@@H](N)CC(=O)O)C(=O)N[C@@H](CC(C)C)C(=O)NCC(=O)N[C@@H](Cc4ccccc4)C(=O)N[C@@H](CCSC)C(=O)N[C@@H](CCCNC(=N)N)C(=O)N[C@@H](CCCCN)C(=O)N2)NC(=O)[C@H](CSSC[C@@H](C(=O)N[C@@H](CCCCN)C(=O)N[C@@H](Cc2ccc(O)cc2)C(=O)N[C@H](C(=O)N[C@@H](Cc2ccccc2)C(N)=O)C(C)C)NC(=O)[C@H](Cc2c[nH]c4ccccc24)NC(=O)[C@H](CCCCN)NC(=O)[C@H](Cc2c[nH]cn2)NC(=O)[C@H]([C@@H](C)O)NC(=O)[C@H](CCCNC(=N)N)NC(=O)[C@H](CO)NC3=O)NC(=O)[C@H](CCCCN)NC(=O)[C@H](CC(=O)O)NC(=O)[C@H](CC(N)=O)NC(=O)[C@H](CC(=O)O)NC(=O)[C@@H]2CCCN2C1=O [SEQ ID NO: 93, [Ser-Ser19]GpTx-1] (H-DCLGFMRKCIPDNDKCCRSSNLVCSRTHKWCKYVF-NH2; disulfide 2-17, 9-24, 16-31) |  |  |  | IC50 (hNav1.5; IonWorks Quattro, Use, read-out: IWQ Use Nav1.5): 13.9 µM; IC50 (hNav1.3; Use): 0.32 µM; IC50 (hNav1.7; IonWorks Quattro, Use, read-out: IWQ Use Nav1.7): 0.27 µM |
| CC[C@H](C)[C@@H]1NC(=O)[C@@H]2CSSC[C@@H]3NC(=O)[C@H](C(C)C)NC(=O)[C@H](CC(C)C)NC(=O)[C@H](CC(N)=O)NC(=O)[C@@H]4CCCN4C(=O)[C@H](CCCNC(=N)N)NC(=O)[C@H](CSSC[C@H](NC(=O)[C@@H](N)Cc4ccc(O)cc4)C(=O)N[C@@H](CC(C)C)C(=O)NCC(=O)N[C@@H](Cc4ccccc4)C(=O)N[C@@H](CCSC)C(=O)N[C@@H](CCCNC(=N)N)C(=O)N[C@@H](CCCCN)C(=O)N2)NC(=O)[C@H](CSSC[C@@H](C(=O)N[C@@H](CCCCN)C(=O)N[C@@H](Cc2ccc(O)cc2)C(=O)N[C@H](C(=O)N[C@@H](Cc2ccccc2)C(N)=O)C(C)C)NC(=O)[C@H](Cc2c[nH]c4ccccc24)NC(=O)[C@H](CCCCN)NC(=O)[C@H](Cc2c[nH]cn2)NC(=O)[C@H]([C@@H](C)O)NC(=O)[C@H](CCCNC(=N)N)NC(=O)[C@H](CO)NC3=O)NC(=O)[C@H](CCCCN)NC(=O)[C@H](CC(=O)O)NC(=O)[C@H](CC(N)=O)NC(=O)[C@H](CC(=O)O)NC(=O)[C@@H]2CCCN2C1=O [SEQ ID NO: 97] (H-YCLGFMRKCIPDNDKCCRPNLVCSRTHKWCKYVF-NH2; disulfide 2-17, 9-23, 16-30) | 10.6 µM | 0.13 µM | 0.16 µM |  |
| CC[C@H](C)[C@@H]1NC(=O)[C@@H]2CSSC[C@@H]3NC(=O)[C@H](C(C)C)NC(=O)[C@H](CC(C)C)NC(=O)[C@H](CC(N)=O)NC(=O)[C@@H]4CCCN4C(=O)[C@H](CCCNC(=N)N)NC(=O)[C@H](CSSC[C@H](NC(=O)[C@@H](N)CC(=O)O)C(=O)N[C@@H](CCC(N)=O)C(=O)NCC(=O)N[C@@H](Cc4ccccc4)C(=O)N[C@@H](CCSC)C(=O)N[C@@H](CCCNC(=N)N)C(=O)N[C@@H](CCCCN)C(=O)N2)NC(=O)[C@H](CSSC[C@@H](C(=O)N[C@@H](CCCCN)C(=O)N[C@@H](Cc2ccc(O)cc2)C(=O)N[C@H](C(=O)N[C@@H](Cc2ccccc2)C(N)=O)C(C)C)NC(=O)[C@H](Cc2c[nH]c4ccccc24)NC(=O)[C@H](CCCCN)NC(=O)[C@H](Cc2c[nH]cn2)NC(=O)[C@H]([C@@H](C)O)NC(=O)[C@H](CCCNC(=N)N)NC(=O)[C@H](CO)NC3=O)NC(=O)[C@H](CCCCN)NC(=O)[C@H](CC(=O)O)NC(=O)[C@H](CC(N)=O)NC(=O)[C@H](CC(=O)O)NC(=O)[C@@H]2CCCN2C1=O [SEQ ID NO: 98] (H-DCQGFMRKCIPDNDKCCRPNLVCSRTHKWCKYVF-NH2; disulfide 2-17, 9-23, 16-30) | 16.4 µM | 0.24 µM | 0.25 µM |  |
| CC[C@H](C)[C@@H]1NC(=O)[C@@H]2CSSC[C@@H]3NC(=O)[C@H](C(C)C)NC(=O)[C@H](CC(C)C)NC(=O)[C@H](CC(N)=O)NC(=O)[C@@H]4CCCN4C(=O)[C@H](CCCNC(=N)N)NC(=O)[C@H](CSSC[C@H](NC(=O)[C@@H](N)CC(=O)O)C(=O)N[C@@H](CC(C)C)C(=O)NCC(=O)N[C@@H](Cc4cccc5ccccc45)C(=O)N[C@@H](CCSC)C(=O)N[C@@H](CCCNC(=N)N)C(=O)N[C@@H](CCCCN)C(=O)N2)NC(=O)[C@H](CSSC[C@@H](C(=O)N[C@@H](CCCCN)C(=O)N[C@@H](Cc2ccc(O)cc2)C(=O)N[C@H](C(=O)N[C@@H](Cc2ccccc2)C(N)=O)C(C)C)NC(=O)[C@H](Cc2c[nH]c4ccccc24)NC(=O)[C@H](CCCCN)NC(=O)[C@H](Cc2c[nH]cn2)NC(=O)[C@H]([C@@H](C)O)NC(=O)[C@H](CCCNC(=N)N)NC(=O)[C@H](CO)NC3=O)NC(=O)[C@H](CCCCN)NC(=O)[C@H](CC(=O)O)NC(=O)[C@H](CC(N)=O)NC(=O)[C@H](CC(=O)O)NC(=O)[C@@H]2CCCN2C1=O [SEQ ID NO: 105] |  | 0.1 µM | 0.08 µM | IC50 (hNav1.5; IWQ Use Nav1.5): 13.4 µM |
| CC[C@H](C)[C@@H]1NC(=O)[C@@H]2CSSC[C@@H]3NC(=O)[C@H](C(C)C)NC(=O)[C@H](CC(C)C)NC(=O)[C@H](CC(N)=O)NC(=O)[C@@H]4CCCN4C(=O)[C@H](CCCNC(=N)N)NC(=O)[C@H](CSSC[C@H](NC(=O)[C@H](CC(=O)O)NC(=O)[C@@H](N)Cc4c[nH]c5ccccc45)C(=O)N[C@@H](CC(C)C)C(=O)NCC(=O)N[C@@H](Cc4ccccc4)C(=O)N[C@@H](CCSC)C(=O)N[C@@H](CCCNC(=N)N)C(=O)N[C@@H](CCCCN)C(=O)N2)NC(=O)[C@H](CSSC[C@@H](C(=O)N[C@@H](CCCCN)C(=O)N[C@@H](Cc2ccc(O)cc2)C(=O)N[C@H](C(=O)N[C@@H](Cc2ccccc2)C(N)=O)C(C)C)NC(=O)[C@H](Cc2c[nH]c4ccccc24)NC(=O)[C@H](CCCCN)NC(=O)[C@H](Cc2cnc[nH]2)NC(=O)[C@H]([C@@H](C)O)NC(=O)[C@H](CCCNC(=N)N)NC(=O)[C@H](CO)NC3=O)NC(=O)[C@H](CCCCN)NC(=O)[C@H](CC(=O)O)NC(=O)[C@H](CC(N)=O)NC(=O)[C@H](CC(=O)O)NC(=O)[C@@H]2CCCN2C1=O [SEQ ID NO: 106] | 22 µM | 0.25 µM | 0.22 µM |  |
| CC[C@H](C)[C@@H]1NC(=O)[C@@H]2CSSC[C@@H]3NC(=O)[C@H](C(C)C)NC(=O)[C@H](CC(C)C)NC(=O)[C@H](CC(N)=O)NC(=O)[C@@H]4CCCN4C(=O)[C@H](CCCNC(=N)N)NC(=O)[C@H](CSSC[C@H](NC(=O)[C@@H](N)CC(=O)O)C(=O)N[C@@H](CC(C)C)C(=O)NCC(=O)N[C@@H](Cc4ccccc4)C(=O)N[C@@H](CCSC)C(=O)N[C@@H](CCCNC(=N)N)C(=O)N[C@@H](CCCCN)C(=O)N2)NC(=O)[C@H](CSSC[C@@H](C(=O)N[C@@H](CCCCN)C(=O)N[C@@H](Cc2ccc(O)cc2)C(=O)N[C@H](C(=O)N[C@@H](Cc2ccccc2)C(N)=O)C(C)C)NC(=O)[C@H](Cc2c[nH]c4ccccc24)NC(=O)[C@H](CCCCN)NC(=O)[C@H](Cc2cnc[nH]2)NC(=O)[C@H](CC(C)C)NC(=O)[C@H](CCCNC(=N)N)NC(=O)[C@H](CO)NC3=O)NC(=O)[C@H](CCCCN)NC(=O)[C@H](CC(=O)O)NC(=O)[C@H](CC(N)=O)NC(=O)[C@H](CC(=O)O)NC(=O)[C@@H]2CCCN2C1=O [SEQ ID NO: 121, [Leu26]GpTx-1] (H-DCLGFMRKCIPDNDKCCRPNLVCSRLHKWCKYVF-NH2; disulfide 2-17, 9-23, 16-30) |  |  |  | IC50 (hNav1.5; Table 22, IonWorks Quattro, use, […], read-out: IWQ Use Nav1.5): 10.2 µM; IC50 (hNav1.3; Table 22, use, […]): 0.07 µM; IC50 (hNav1.7): 0.07 µM |
| CC[C@@H]1NC(=O)[C@H](Cc2ccccc2)NC(=O)CNC(=O)[C@H](CC(C)C)NC(=O)[C@@H](NC(=O)[C@@H](N)CC(=O)O)CSSC[C@@H]2NC(=O)[C@@H]3CSSC[C@@H](C(=O)N[C@@H](CCCCN)C(=O)N[C@@H](Cc4ccc(O)cc4)C(=O)N[C@H](C(=O)N[C@@H](Cc4ccccc4)C(N)=O)C(C)C)NC(=O)[C@H](Cc4c[nH]c5ccccc45)NC(=O)[C@H](CCCCN)NC(=O)[C@H](Cc4c[nH]cn4)NC(=O)[C@H]([C@@H](C)O)NC(=O)[C@H](CCCNC(=N)N)NC(=O)[C@H](CO)NC(=O)[C@H](CSSC[C@H](NC(=O)[C@H](CCCCN)NC(=O)[C@H](CCCNC(=N)N)NC1=O)C(=O)N[C@@H]([C@@H](C)CC)C(=O)N1CCC[C@H]1C(=O)N[C@@H](CC(=O)O)C(=O)N[C@@H](CC(N)=O)C(=O)N[C@@H](CC(=O)O)C(=O)N[C@@H](CCCCN)C(=O)N3)NC(=O)[C@H](C(C)C)NC(=O)[C@H](CC(C)C)NC(=O)[C@H](CC(N)=O)NC(=O)[C@@H]1CCCN1C(=O)[C@H](CCCNC(=N)N)NC2=O [SEQ ID NO: 124] | 10.6 µM | 0.1 µM | 0.11 µM |  |
